Laboratory results: ChEMBL document CHEMBL5113453, “Design, synthesis, and biological evaluation of a new series of pyrazole derivatives: Discovery of potent and selective JNK3 kinase inhibitors” (Bioorg Med Chem, 2022)

Key:
[1] = system: HOP-92; assay: Antiproliferative activity against human HOP-92 cells measured after 48 hrs by SRB assay; assay type: functional, cell-based
[2] = biological target: T1, Mitogen-activated protein kinase 10 (Homo sapiens, UniProt P53779); assay: Inhibition of JNK3 (unknown origin) at 1 uM relative to control
T1 sequence (P53779 whole entry): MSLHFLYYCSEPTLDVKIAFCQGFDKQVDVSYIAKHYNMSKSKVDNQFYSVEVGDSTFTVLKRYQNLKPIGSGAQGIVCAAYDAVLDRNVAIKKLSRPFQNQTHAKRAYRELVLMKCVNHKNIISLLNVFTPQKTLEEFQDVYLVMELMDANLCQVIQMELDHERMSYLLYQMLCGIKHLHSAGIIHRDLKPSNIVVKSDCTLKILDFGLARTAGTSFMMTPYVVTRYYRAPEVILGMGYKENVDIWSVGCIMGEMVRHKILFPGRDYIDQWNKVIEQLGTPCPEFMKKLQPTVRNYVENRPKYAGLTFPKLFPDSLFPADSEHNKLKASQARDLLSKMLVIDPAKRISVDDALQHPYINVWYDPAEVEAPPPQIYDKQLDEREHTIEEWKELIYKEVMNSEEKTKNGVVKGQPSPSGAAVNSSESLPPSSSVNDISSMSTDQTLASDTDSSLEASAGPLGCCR

[3] = system: A498; assay: Antiproliferative activity against human A498 cells measured after 48 hrs by SRB assay; assay type: functional, cell-based
[4] = system: ACHN; assay: Antiproliferative activity against human ACHN cells measured after 48 hrs by SRB assay; assay type: functional, cell-based
[5] = system: SK-MEL-5; assay: Antiproliferative activity against human SK-MEL-5 cells measured after 48 hrs by SRB assay; assay type: functional, cell-based
[6] = system: M14; assay: Antiproliferative activity against human M14 cells measured after 48 hrs by SRB assay; assay type: functional, cell-based
[7] = system: SW-620; assay: Antiproliferative activity against human SW-620 cells measured after 48 hrs by SRB assay; assay type: functional, cell-based
[8] = system: MDA-MB-468; assay: Antiproliferative activity against human MDA-MB-468 cells measured after 48 hrs by SRB assay; assay type: functional, cell-based
[9] = biological target: T1, Mitogen-activated protein kinase 10; assay: Inhibition of JNK3 (unknown origin)
[10] = system: MDA-MB-231; assay: Antiproliferative activity against human MDA-MB-231 cells measured after 48 hrs by SRB assay; assay type: functional, cell-based
[11] = system: SF-268; assay: Antiproliferative activity against human SF-268 cells measured after 48 hrs by SRB assay; assay type: functional, cell-based
[12] = system: HCT-116; assay: Antiproliferative activity against human HCT-116 cells measured after 48 hrs by SRB assay; assay type: functional, cell-based
[13] = system: SNB-75; assay: Antiproliferative activity against human SNB-75 cells measured after 48 hrs by SRB assay; assay type: functional, cell-based
[14] = system: OVCAR-3; assay: Antiproliferative activity against human OVCAR-3 cells measured after 48 hrs by SRB assay; assay type: functional, cell-based
[15] = system: CAKI-1; assay: Antiproliferative activity against human CAKI-1 cells measured after 48 hrs by SRB assay; assay type: functional, cell-based
[16] = system: K562; assay: Antiproliferative activity against human K562 cells measured after 48 hrs by SRB assay; assay type: functional, cell-based
[17] = system: NCI-H322M; assay: Antiproliferative activity against human NCI-H322M cells measured after 48 hrs by SRB assay; assay type: functional, cell-based
[18] = system: A549; assay: Antiproliferative activity against human A549 cells measured after 48 hrs by SRB assay; assay type: functional, cell-based
[19] = system: WI-38; assay: Antiproliferative activity against human WI-38 cells measured by MTT assay; assay type: functional, cell-based
[20] = system: COLO 205; assay: Antiproliferative activity against human COLO 205 cells measured after 48 hrs by SRB assay; assay type: functional, cell-based
[21] = system: RXF 393; assay: Antiproliferative activity against human RXF 393 cells measured after 48 hrs by SRB assay; assay type: functional, cell-based
[22] = system: OVCAR-5; assay: Antiproliferative activity against human OVCAR-5 cells measured after 48 hrs by SRB assay; assay type: functional, cell-based
[23] = system: CCRF-CEM; assay: Antiproliferative activity against human CCRF-CEM cells measured after 48 hrs by SRB assay; assay type: functional, cell-based
[24] = system: NCI/ADR-RES; assay: Antiproliferative activity against human NCI-ADR-RES cells measured after 48 hrs by SRB assay; assay type: functional, cell-based
[25] = system: HL-60(TB); assay: Antiproliferative activity against human HL-60(TB) cells measured after 48 hrs by SRB assay; assay type: functional, cell-based
[26] = system: SF-295; assay: Antiproliferative activity against human SF-295 cells measured after 48 hrs by SRB assay; assay type: functional, cell-based
[27] = system: TK-10; assay: Antiproliferative activity against human TK-10 cells measured after 48 hrs by SRB assay; assay type: functional, cell-based
[28] = system: MOLT-4; assay: Antiproliferative activity against human MOLT-4 cells measured after 48 hrs by SRB assay; assay type: functional, cell-based
[29] = system: SK-OV-3; assay: Antiproliferative activity against human SK-OV-3 cells measured after 48 hrs by SRB assay; assay type: functional, cell-based
[30] = system: RPMI-8226; assay: Antiproliferative activity against human RPMI-8226 cells measured after 48 hrs by SRB assay; assay type: functional, cell-based
[31] = system: PC-3; assay: Antiproliferative activity against human PC-3 cells measured after 48 hrs by SRB assay; assay type: functional, cell-based
[32] = system: UACC-257; assay: Antiproliferative activity against human UACC-257 cells measured after 48 hrs by SRB assay; assay type: functional, cell-based
[33] = system: KM12; assay: Antiproliferative activity against human KM12 cells measured after 48 hrs by SRB assay; assay type: functional, cell-based
[34] = system: UACC-62; assay: Antiproliferative activity against human UACC-62 cells measured after 48 hrs by SRB assay; assay type: functional, cell-based
[35] = system: MDA-MB-435; assay: Antiproliferative activity against human MDA-MB-435 cells measured after 48 hrs by SRB assay; assay type: functional, cell-based
[36] = system: SK-MEL-2; assay: Antiproliferative activity against human SK-MEL-2 cells measured after 48 hrs by SRB assay; assay type: functional, cell-based
[37] = system: NCI-H460; assay: Antiproliferative activity against human NCI-H460 cells measured after 48 hrs by SRB assay; assay type: functional, cell-based
[38] = system: SK-MEL-28; assay: Antiproliferative activity against human SK-MEL-28 cells measured after 48 hrs by SRB assay; assay type: functional, cell-based
[39] = system: OVCAR-4; assay: Antiproliferative activity against human OVCAR-4 cells measured after 48 hrs by SRB assay; assay type: functional, cell-based

O=C(Nc1ccc(Cl)c(C(F)(F)F)c1)N1CCN(c2cc(-c3cn(-c4ccccc4)nc3-c3cccc(O)c3)ccn2)CC1
IC50 ([1]; HOP-92, 48 h): 2.59 µM
TGI ([1]; HOP-92, time 48 hrs): 15.9 µM
inhibition [2]: 14%
IC50 ([3]; A498, 48 h): 4.72 µM
TGI ([3]; A498, time 48 hrs): 21 µM
IC50 ([4]; 48 h): 3 µM
TGI ([4]; time 48 hrs): 17 µM
IC50 ([5]; SK-MEL-5, 48 h): 2.58 µM
TGI ([5]; SK-MEL-5, time 48 hrs): 5.45 µM
IC50 ([6]; M14, 48 h): 3.03 µM
TGI ([6]; M14, time 48 hrs): 12.5 µM
IC50 ([7]; SW-620, 48 h): 4.78 µM
TGI ([7]; SW-620, time 48 hrs): > 22 µM
IC50 ([8]; MDA-MB-468, 48 h): 1.03 µM
TGI ([8]; MDA-MB-468, time 48 hrs): 7.22 µM
IC50 [9]: > 1 µM
IC50 ([10]; MDA-MB-231, 48 h): 3.07 µM
TGI ([10]; MDA-MB-231, time 48 hrs): 7.57 µM
IC50 ([11]; SF-268, 48 h): 3.3 µM
TGI ([11]; SF-268, time 48 hrs): > 22 µM
IC50 ([12]; HCT-116, 48 h): 1.86 µM
TGI ([12]; HCT-116, time 48 hrs): > 22 µM
IC50 ([13]; SNB-75, 48 h): 0.63 µM
TGI ([13]; SNB-75, time 48 hrs): 11.1 µM
IC50 ([14]; OVCAR-3, 48 h): 1.76 µM
TGI ([14]; OVCAR-3, time 48 hrs): 11.5 µM
IC50 ([15]; CAKI-1, 48 h): 4.18 µM
TGI ([15]; CAKI-1, time 48 hrs): 19.4 µM
IC50 ([16]; K562, 48 h): 2.13 µM
TGI ([16]; K562, time 48 hrs): > 22 µM
IC50 ([17]; 48 h): 5.86 µM
TGI ([17]; time 48 hrs): > 22 µM
IC50 ([18]; A549, 48 h): 4.34 µM
TGI ([18]; A549, time 48 hrs): > 22 µM
IC50 [19]: > 20 µM
IC50 ([20]; COLO 205, 48 h): 3.01 µM
TGI ([20]; COLO 205, time 48 hrs): 9.39 µM
IC50 ([21]; RXF 393, 48 h): 2.42 µM
TGI ([21]; RXF 393, time 48 hrs): 9.79 µM
IC50 ([22]; OVCAR-5, 48 h): 4.13 µM
TGI ([22]; OVCAR-5, time 48 hrs): 10.5 µM
IC50 ([23]; 48 h): 1.59 µM
TGI ([23]; time 48 hrs): 9.71 µM
IC50 ([24]; 48 h): 2.91 µM
TGI ([24]; time 48 hrs): 11.9 µM
IC50 ([25]; HL-60, 48 h): 2.34 µM
TGI ([25]; HL-60, time 48 hrs): 8.58 µM
IC50 ([26]; SF-295, 48 h): 1.5 µM
TGI ([26]; SF-295, time 48 hrs): 7.25 µM
IC50 ([27]; TK-10, 48 h): 5.92 µM
TGI ([27]; TK-10, time 48 hrs): > 22 µM
IC50 ([28]; MOLT-4, 48 h): 0.93 µM
TGI ([28]; MOLT-4, time 48 hrs): 7.58 µM
IC50 ([29]; SK-OV-3, 48 h): 6.43 µM
TGI ([29]; SK-OV-3, time 48 hrs): > 22 µM
IC50 ([30]; RPMI-8226, 48 h): 1.21 µM
TGI ([30]; RPMI-8226, time 48 hrs): 11.8 µM
IC50 ([31]; PC-3, 48 h): 0.97 µM
TGI ([31]; PC-3, time 48 hrs): 17 µM
IC50 ([32]; UACC-257, 48 h): 4.77 µM
TGI ([32]; UACC-257, time 48 hrs): 14.3 µM
IC50 ([33]; KM12, 48 h): 3.34 µM
TGI ([33]; KM12, time 48 hrs): 15.2 µM
IC50 ([34]; UACC-62, 48 h): 2.68 µM
TGI ([34]; UACC-62, time 48 hrs): 5.77 µM
IC50 ([35]; MDA-MB-435, 48 h): 2.29 µM
TGI ([35]; MDA-MB-435, time 48 hrs): 6.33 µM
IC50 ([36]; SK-MEL-2, 48 h): 3.54 µM
TGI ([36]; SK-MEL-2, time 48 hrs): 7.57 µM
IC50 ([37]; NCI-H460, 48 h): 2.47 µM
TGI ([37]; NCI-H460, time 48 hrs): > 22 µM
IC50 ([38]; SK-MEL-28, 48 h): 3.41 µM
TGI ([38]; SK-MEL-28, time 48 hrs): 10.3 µM
IC50 ([39]; OVCAR-4, 48 h): 2.02 µM
TGI ([39]; OVCAR-4, time 48 hrs): > 22 µM
